Reference: patent US20240247253A1, “PRODUCTION METHOD OF POLYPEPTIDE, TAG, EXPRESSION VECTOR, EVALUATION METHOD OF POLYPEPTIDE, PRODUCTION METHOD OF NUCLEIC ACID DISPLAY LIBRARY, AND SCREENING METHOD” (FUJIFILM Corporation, priority 2021, published 2024)

Legend:
[1] = system: cell-free peptide synthesis system derived from Escherichia coli; test: Cell-free biosynthesis of the integrin binding peptide fusion protein with N-terminal tag, 1 hour reaction, amount measured by ELISA; format: biochemical; conditions: relative value, control example without tag = 1; fusion protein SEQ ID NO: 5; 37° C. for 1 hour; average of two measurements
From the text: In the cell-free peptide synthesis system derived from Escherichia coli, the effect of the VKKX tag on the biosynthesis amount of the polypeptide was examined. As a polypeptide to be biosynthesized, an integrin binding peptide containing cysteine and chloroacetyl lysine was selected. In this polypeptide, a thiol group of cysteine and a chloroacetyl group of chloroacetyl lysine spontaneously form a thioether bond to become a cyclic polypeptide.
A fusion protein in which an integrin binding peptide, a Myc tag, and a HiBiT tag were linked in this order was designed. As a spacer, Gly-Gly-Ser was inserted between the integrin binding peptide and the Myc tag and between the Myc tag and the HiBiT tag. The amino acid sequence of this fusion protein is SEQ ID NO: 5, and the base sequence encoding this fusion protein is SEQ ID NO: 6. In SEQ ID NO: 5, the integrin binding peptide ranges to the amino acid at the twelfth position (that is, alanine) from an N-terminal, and the amino acid at eleventh position from the N-terminal is chloroacetyl lysine. The triplet TAG at the positions 31 to 33 from the 5′ terminal of the base sequence set forth in SEQ ID NO: 6 was assigned to the codon of chloroacetyl lysine. The end of the base sequence set forth in SEQ ID NO: 6 is the stop codon TAA.
A base sequence encoding a tagged fusion protein in which methionine, a VKKX tag (any of SEQ ID nOs: 7 to 52), and a fusion protein (SEQ ID NO: 5) were linked in this order was designed. In this base sequence, a base sequence (any of SEQ ID nOs: 53 to 98) encoding a VKKX tag is arranged immediately after the start codon ATG, and a base sequence encoding a fusion protein immediately after the base sequence (SEQ ID NO: 6) encoding the VKKX tag is arranged.
As a control example for evaluating the effect of the VKKX tag, a base sequence in which a base sequence (SEQ ID NO: 6) encoding a fusion protein arranged immediately after the start codon ATG was designed.
In order to translate chloroacetyl lysine which is an unnatural amino acid, a tRNA in which the anticodon was CUA and paired with the UAG codon of mRNA was prepared. This tRNA was aminoacylated with an N-chloroacetyl lysine hosphoro 2′ deoxyribocytidylylriboadenosine (pdCpA) ester. This aminoacyl tRNA is referred to as an Aminoacyl tRNA (1).
(§1) The cell-free biosynthesis of the polypeptide was carried out in a translation solution containing a template DNA, PUREfrex 2.0 (GeneFrontier, PF201-0.25-5), and Aminoacyl tRNA (1). 1.25 μL (62.5 ng) of the template DNA prepared to 50 ng/μL, 2.5 μL of PUREfrex 2.0 Solution I, 0.25 μL of Solution II, 0.5 μL of Solution III, and 0.5 μL of Aminoacyl tRNA (1) were mixed and mixture was subjected to a reaction at 37° ° C. for 1 hour.
The amount of the biosynthesized polypeptide was measured by ELISA. 50 ng of Recombinant Human Integrin αVβ3 (R&D systems, 3050-AV-050) was immobilized in each well of a 96-well plate and blocked with Blocker Casein in PBS (Thermo, 37528), and then a cell-free biosynthesis solution diluted with Can Get Signal Immunoreaction Enhancer Solution I (TOYOBO, NKB-101) containing 5 mmol/L MgCl2 was added thereto, and the mixture was subjected to a reaction at room temperature for 3 hours. After washing with 5 mmol/L MgCl2/0.05% Tween 20-containing phosphate buffered saline (PBS), an anti-Myc antibody (Cell Signaling, 14038S) diluted with Can Get Signal Immunoreaction Enhancer Solution II (TOYOBO, NKB-101) was added thereto, and the mixture was subjected to a reaction at room temperature for 2 hours. After washing with PBS containing 5 mmol/L MgCl2/0.05% Tween 20, Super Signal ELISA Femto Substrate (Thermo, 37075) was added thereto, and the luminescence was measured. The amount of the fusion protein in the cell-free biosynthesis solution was calculated based on a calibration curve created from the fusion protein having a known concentration. The luminescence measurement was performed twice, and the average value of the amounts of the fusion protein was calculated. […]

[2] = system: cell-free peptide synthesis system derived from Escherichia coli; test: Cell-free biosynthesis of the integrin binding peptide fusion protein with tag, reaction time 10 minutes, ELISA; format: biochemical; conditions: relative value, control without tag = 1; reaction time 10 minutes; fusion protein SEQ ID NO: 5; SKIK encoded by SEQ ID NO: 110
Procedure: as §1
The amount of the biosynthesized polypeptide was measured by ELISA. 50 ng of Recombinant Human Integrin αVβ3 (R&D systems, 3050-AV-050) was immobilized in each well of a 96-well plate and blocked with Blocker Casein in PBS (Thermo, 37528), and then a cell-free biosynthesis solution diluted with Can Get Signal Immunoreaction Enhancer Solution I (TOYOBO, NKB-101) containing 5 mmol/L MgCl2 was added thereto, and the mixture was subjected to a reaction at room temperature for 3 hours. After washing with 5 mmol/L MgCl2/0.05% Tween 20-containing phosphate buffered saline (PBS), an anti-Myc antibody (Cell Signaling, 14038S) diluted with Can Get Signal Immunoreaction Enhancer Solution II (TOYOBO, NKB-101) was added thereto, and the mixture was subjected to a reaction at room temperature for 2 hours. After washing with PBS containing 5 mmol/L MgCl2/0.05% Tween 20, Super Signal ELISA Femto Substrate (Thermo, 37075) was added thereto, and the luminescence was measured. The amount of the fusion protein in the cell-free biosynthesis solution was calculated based on a calibration curve created from the fusion protein having a known concentration. The luminescence measurement was performed twice, and the average value of the amounts of the fusion protein was calculated. Table 2-1 and Table 2-2 show relative values of the biosynthesis amounts of respective fusion proteins in a case where the amount of the fusion protein of the control example was set to the reference value 1.
As a comparative control, a SKIK tag represented by SEQ ID NO: 107 was selected. The polypeptide to be biosynthesized is the fusion protein containing the integrin binding peptide, as in Example 1.
Using a template DNA including DNA sequences (SEQ ID NOs: 73 to 98) encoding VKKX tags represented by SEQ ID NOs: 27 to 52 produced in Example 1, and a DNA sequence (SEQ ID NO: 110) encoding a SKIK tag represented by SEQ ID NO: 107 produced in Example 2, the biosynthesis reaction was performed in the same manner as in Example 1 by setting the reaction time to 10 minutes. In the same manner in Example 1, the fusion protein was expressed by the cell-free peptide synthesis system and quantified by ELISA. The measurement was performed twice, and the average value of the amounts of the fusion protein was calculated. […] As control example used in Example 1, the control example of the reference value 1 has a form in which the base sequence (SEQ ID NO: 6) encoding the fusion protein is arranged immediately after the start codon ATG.

## SEQ ID NO: 7: VKKX tag, amino acid sequence VKKI (VKKX Tag)
[1]
  Biosynthesis amount of fusion protein: 4.40

## SEQ ID NO: 8: VKKX tag, amino acid sequence VKKK (VKKX Tag)
[1]
  Biosynthesis amount of fusion protein: 6.15

## SEQ ID NO: 9: VKKX tag, amino acid sequence VKKT (VKKX Tag)
[1]
  Biosynthesis amount of fusion protein: 5.66

## SEQ ID NO: 10: VKKX tag, amino acid sequence VKKR (VKKX Tag)
[1]
  Biosynthesis amount of fusion protein: 5.75

## SEQ ID NO: 11: VKKX tag, amino acid sequence VKKS (VKKX Tag)
[1]
  Biosynthesis amount of fusion protein: 6.05

## SEQ ID NO: 12: VKKX tag, amino acid sequence VKKH (VKKX Tag)
[1]
  Biosynthesis amount of fusion protein: 5.82

## SEQ ID NO: 13: VKKX tag, amino acid sequence VKKM (VKKX Tag)
[1]
  Biosynthesis amount of fusion protein: 1.94

## SEQ ID NO: 14: VKKX tag, amino acid sequence VKKP (VKKX Tag)
[1]
  Biosynthesis amount of fusion protein: 2.23

## SEQ ID NO: 15: VKKX tag, amino acid sequence VKKG (VKKX Tag)
[1]
  Biosynthesis amount of fusion protein: 2.39

## SEQ ID NO: 16: VKKX tag, amino acid sequence VKKL (VKKX Tag)
[1]
  Biosynthesis amount of fusion protein: 2.71

## SEQ ID NO: 17: VKKX tag, amino acid sequence VKKV (VKKX Tag)
[1]
  Biosynthesis amount of fusion protein: 2.90

## SEQ ID NO: 18: VKKX tag, amino acid sequence VKKE (VKKX Tag)
[1]
  Biosynthesis amount of fusion protein: 2.94

## SEQ ID NO: 19: VKKX tag, amino acid sequence VKKA (VKKX Tag)
[1]
  Biosynthesis amount of fusion protein: 3.01

## SEQ ID NO: 20: VKKX tag, amino acid sequence VKKD (VKKX Tag)
[1]
  Biosynthesis amount of fusion protein: 3.05

## SEQ ID NO: 21: VKKX tag, amino acid sequence VKKC (VKKX Tag)
[1]
  Biosynthesis amount of fusion protein: 3.14

## SEQ ID NO: 22: VKKX tag, amino acid sequence VKKN (VKKX Tag)
[1]
  Biosynthesis amount of fusion protein: 3.17

## SEQ ID NO: 23: VKKX tag, amino acid sequence VKKY (VKKX Tag)
[1]
  Biosynthesis amount of fusion protein: 3.30

## SEQ ID NO: 24: VKKX tag, amino acid sequence VKKQ (VKKX Tag)
[1]
  Biosynthesis amount of fusion protein: 3.52

## SEQ ID NO: 25: VKKX tag, amino acid sequence VKKW (VKKX Tag)
[1]
  Biosynthesis amount of fusion protein: 3.52

## SEQ ID NO: 26: VKKX tag, amino acid sequence VKKF (VKKX Tag)
[1]
  Biosynthesis amount of fusion protein: 3.69

## SEQ ID NO: 28: VKKX tag, amino acid sequence VKKTKTT (VKKX Tag)
[1]
  Biosynthesis amount of fusion protein: 6.28
[2]
  Biosynthesis amount of fusion protein: 16.65

## SEQ ID NO: 29: VKKX tag, amino acid sequence VKKTKTD (VKKX Tag)
[1]
  Biosynthesis amount of fusion protein: 6.09
[2]
  Biosynthesis amount of fusion protein: 15.90

## SEQ ID NO: 30: VKKX tag, amino acid sequence VKKTKTKK (VKKX Tag)
[1]
  Biosynthesis amount of fusion protein: 9.01
[2]
  Biosynthesis amount of fusion protein: 24.42

## SEQ ID NO: 31: VKKX tag, amino acid sequence VKKTKTKT (VKKX Tag)
[1]
  Biosynthesis amount of fusion protein: 9.08
[2]
  Biosynthesis amount of fusion protein: 15.48

## SEQ ID NO: 32: VKKX tag, amino acid sequence VKKTKTKD (VKKX Tag)
[1]
  Biosynthesis amount of fusion protein: 8.04
[2]
  Biosynthesis amount of fusion protein: 20.56

## SEQ ID NO: 33: VKKX tag, amino acid sequence VKKTKTTK (VKKX Tag)
[1]
  Biosynthesis amount of fusion protein: 6.54
[2]
  Biosynthesis amount of fusion protein: 8.17

## SEQ ID NO: 34: VKKX tag, amino acid sequence VKKTKTTT (VKKX Tag)
[1]
  Biosynthesis amount of fusion protein: 6.69
[2]
  Biosynthesis amount of fusion protein: 8.59

## SEQ ID NO: 35: VKKX tag, amino acid sequence VKKTKTDD (VKKX Tag)
[1]
  Biosynthesis amount of fusion protein: 5.75
[2]
  Biosynthesis amount of fusion protein: 8.49

## SEQ ID NO: 36: VKKX tag, amino acid sequence VKKTKTKKT (VKKX Tag)
[1]
  Biosynthesis amount of fusion protein: 10.50
[2]
  Biosynthesis amount of fusion protein: 13.13

## SEQ ID NO: 37: VKKX tag, amino acid sequence VKKTKTKKD (VKKX Tag)
[1]
  Biosynthesis amount of fusion protein: 11.45
[2]
  Biosynthesis amount of fusion protein: 19.84

## SEQ ID NO: 38: VKKX tag, amino acid sequence VKKTKTKTK (VKKX Tag)
[1]
  Biosynthesis amount of fusion protein: 8.42
[2]
  Biosynthesis amount of fusion protein: 16.95

## SEQ ID NO: 39: VKKX tag, amino acid sequence VKKTKTKTT (VKKX Tag)
[1]
  Biosynthesis amount of fusion protein: 7.22
[2]
  Biosynthesis amount of fusion protein: 7.57

## SEQ ID NO: 40: VKKX tag, amino acid sequence VKKTKTKDK (VKKX Tag)
[1]
  Biosynthesis amount of fusion protein: 8.49
[2]
  Biosynthesis amount of fusion protein: 10.77

## SEQ ID NO: 41: VKKX tag, amino acid sequence VKKTKTKDT (VKKX Tag)
[1]
  Biosynthesis amount of fusion protein: 6.27
[2]
  Biosynthesis amount of fusion protein: 28.80

## SEQ ID NO: 42: VKKX tag, amino acid sequence VKKTKTKDD (VKKX Tag)
[1]
  Biosynthesis amount of fusion protein: 5.35
[2]
  Biosynthesis amount of fusion protein: 14.95

## SEQ ID NO: 43: VKKX tag, amino acid sequence VKKTKTTKK (VKKX Tag)
[1]
  Biosynthesis amount of fusion protein: 9.45
[2]
  Biosynthesis amount of fusion protein: 23.35

## SEQ ID NO: 44: VKKX tag, amino acid sequence VKKTKTTKT (VKKX Tag)
[1]
  Biosynthesis amount of fusion protein: 7.83
[2]
  Biosynthesis amount of fusion protein: 7.18
